Reference: patent publication US20220274947A1, “NOVEL HETEROARYL-TRIAZOLE COMPOUNDS AS PESTICIDES” (Bayer Aktiengesellschaft, priority 2019, published 2022)

What was measured:
Type in all cases: in vivo
Rhipicephalus microplus [1] = assay: Rhipicephalus (Boophilus) microplus in-vitro contact test, larval cattle tick, strain Parkhurst (BOOPMI Cont); conditions: application rate 5 μg/cm^2 (=500 g/ha), tick larvae, after 48 hours, read-out: activity (efficacy: 100% means all larvae are dead or moribund)
Summary of the method: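 After 48 h at 27° C. and 85% humidity, percent dead or moribund larvae was scored from negative geotactic behaviour. Larvae (20-50, Parkhurst strain, synthetic pyrethroid-resistant) were exposed in tubes coated with compound from acetone, 900 ppm corresponding to 5 μg/cm^2.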

Spodoptera frugiperda = Spodoptera frugiperda spray test; conditions: in Zea mays, 168 h, read-out: activity (mortality)
Summary of the method: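 Percent kill of fall armyworm caterpillars was assessed 7 days after infesting dried, treated maize leaf sections. Treatment was a spray of compound in acetone/dimethylformamide, diluted with water containing emulsifier at 1000 ppm.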

Nezara viridula = Nezara viridula spray test; conditions: in Hordeum vulgare, 96 h, barley plants, larvae, after 4 days; for mortality at 500 g/ha: application rate 500 g/ha; for mortality at 100 g/ha: application rate 100 g/ha
Procedure: Nezara viridula—Spray Test Solvent: 78.0 parts by weight of acetone • • 1.5 parts by weight of dimethylformamide Emulsifier: alkylarylpolyglycol ether
To produce a suitable preparation of active compound, 1 part by weight of active compound is mixed with the stated amount of solvent, and the concentrate is diluted with water, containing an emulsifier concentration of 1000 ppm, to the desired concentration. Further test concentrations are prepared by dilution with emulsifier containing water.
Barley plants (Hordeum vulgare) infested with larvae of the southern green stink bug (Nezara viridula) are sprayed with a test solution containing the desired concentration of the active ingredient.
After 4 days mortality in % is determined. 100% means all the stink bugs have been killed; 0% means none of the stink bugs have been killed.

Rhipicephalus microplus [2] = assay: Rhipicephalus (Boophilus) microplus injection test (BOOPMI Inj); conditions: 168 h, injection into adult engorged female ticks, egg deposition after 7 days, read-out: activity (efficacy: 100% means all eggs are infertile); for pest or weed control at 0.004 mg: application rate 4 μg/tick; for pest or weed control at 0.02 mg: application rate 20 μg/tick
Summary of the method: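 Compound in DMSO, 1 μL, injected abdominally into five adult engorged females, which were then held in a climate chamber. Read-out is egg fertility, scored from deposition at 7 days, with unclear eggs followed to hatching (~42 days); 0% means all eggs fertile, 100% all infertile.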

[3] = test system: Musca domestica strain WHO—N; assay: Musca domestica test (MUSCDO surface treatment & contact assay); conditions: exposure 30 minutes, 24 hours after contact, read-out: efficacy (mortality); for mortality at 20 mg/m2: surface concentration 20 mg/m^2, glazed tile
Summary of the method: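 Compound dissolved in acetone (2 mg/ml) with 2000 ppm rapeseed oil methyl ester and pipetted onto glazed tile; after acetone evaporation, adult flies exposed to dried surface for 30 minutes. Mortality (%) scored 24 hours after contact.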

Diabrotica balteata = Diabrotica balteata spray test; conditions: 168 h, wheat seeds, larvae, after 7 days, read-out: activity (efficacy: 100% means all seedlings have grown up like in the untreated, uninfected control); for pest or weed control at 32 µg/disc, 100 g/ha: application rate 100 g/ha (=32 μg/well); for pest or weed control at 160 µg/disc, 500 g/ha: application rate 500 g/ha (=160 μg/well)
Summary of the method: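 Efficacy (%) was scored 7 days after spraying, with 100% meaning growth like the untreated, uninfected control and 0% meaning no seedling grew. Spray solutions of compound in acetone/DMF with emulsifier-containing water went onto 1-day-germinated wheat seeds, and each unit was then infested with 10-20 banded cucumber beetle larvae.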

Myzus persicae = Myzus persicae oral test; conditions: 120 h, read-out: activity (mortality)
Summary of the method: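 Percent mortality was recorded at day 5, where 0% means no aphids killed. Compound prepared from an acetone concentrate diluted in water and combined with IPL41 medium containing sugar was offered to mixed-stage green peach aphids, which sucked it through a parafilm seal.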

Rhipicephalus sanguineus = Rhipicephalus sanguineus in-vitro contact test, adult brown dog ticks (RHIPSA Cont); conditions: 48 h, after 48 hours, read-out: activity (efficacy: 100% means all ticks are dead or moribund); for pest or weed control at 5 µg/cm2, 500 g/ha: application rate 5 μg/cm^2 (=500 g/ha); for pest or weed control at 1 µg/cm2, 100 g/ha: application rate 1 μg/cm^2 (=100 g/ha)
Summary of the method: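 Mortality of adult R. sanguineus was judged 48 h after contact with acetone-applied residues on glass tube walls. Ticks that stayed immotile or moved without coordination when heated to 45–50 °C (max 5 min) counted as dead or moribund.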

Ctenocephalides felis [4] = assay: Ctenocephalides felis oral test (CTECFE Oral); conditions: 48 h, read-out: activity (mortality)
Summary of the method: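 Percent mortality was recorded 2 days after roughly 20 adult Ctenocephalides felis fed on treated cattle blood. The blood was warmed to 37 °C beneath a parafilm membrane, with the fleas kept at room temperature. Compound was dissolved in DMSO and diluted into the blood to test concentration.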

Ctenocephalides felis [5] = assay: Ctenocephalides felis in-vitro contact test, adult cat flea (CTECFE Cont); conditions: application rate 5 μg/cm^2 (=500 g/ha), adult cat fleas, after 48 hours, read-out: activity (efficacy: 100% means all fleas are dead or moribund)
Procedure: Ctenocephalides felis—In-Vitro Contact Tests Adult Cat Flea (CTECFE Cont)
9 mg compound is solved in 1 mL acetone and diluted with acetone to the desired concentration. 250 μL of the test solution is filled in 25 mL glass test tubes and homogeneously distributed on the inner walls by rotation and tilting on a shaking device (2 h at 30 rpm). With a compound concentration of 900 ppm, an inner surface of 44.7 cm^2 and a homogeneous distribution, a dose of 5 μg/cm^2 is achieved.
After the solvent has evaporated, each test tube is filled with 5-10 adult cat fleas (Ctenocephalides felis), closed with a perforated lid and incubated in a lying position at room temperature and relative humidity. After 48 hours efficacy is determined. The fleas are patted on the ground of the tubes and are incubated on a heating plate at 45-50° C. for at most 5 minutes. Immotile or uncoordinated moving fleas, which are not able to escape the heat by climbing upwards, are marked as dead or moribund.
An efficacy of 100% means all fleas are dead or moribund; 0% means no fleas are dead or moribund.

[6] = test system: Aedes aegypti strain MONHEIM; assay: Aedes aegypti test (AEDSAE surface treatment & contact assay); conditions: exposure 30 minutes, 24 hours after contact, read-out: efficacy (mortality); for mortality at 4 mg/m2: surface concentration 4 mg/m^2, glazed tile
Summary of the method: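 Compound dissolved in acetone (2 mg/ml) with 2000 ppm rapeseed oil methyl ester, pipetted onto glazed tile and dried. Adult mosquitoes exposed on the surface for 30 min; percent mortality scored 24 h after contact.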

Row | Structure (SMILES) | pest or weed control at 5 µg/cm2 (Rhipicephalus microplus [1]) | mortality at 100 g/ha (Spodoptera frugiperda) | mortality at 500 g/ha (Spodoptera frugiperda) | mortality at 500 g/ha (Nezara viridula) | pest or weed control at 0.004 mg (Rhipicephalus microplus [2]) | pest or weed control at 0.02 mg (Rhipicephalus microplus [2]) | mortality at 20 mg/m2 [3] | pest or weed control at 32 µg/disc, 100 g/ha (Diabrotica balteata) | pest or weed control at 160 µg/disc, 500 g/ha (Diabrotica balteata) | mortality at 4 ppm (Myzus persicae) | pest or weed control at 5 µg/cm2, 500 g/ha (Rhipicephalus sanguineus) | mortality at 100 ppm (Ctenocephalides felis [4]) | pest or weed control at 5 µg/cm2 (Ctenocephalides felis [5]) | mortality at 4 mg/m2 [6] | pest or weed control at 1 µg/cm2, 100 g/ha (Rhipicephalus sanguineus) | mortality at 100 g/ha (Nezara viridula) | mortality at 20 mg/m2 ([6]; surface concentration 20 mg/m^2, glazed tile) | mortality at 4 mg/m2 ([3]; surface concentration 4 mg/m^2, glazed tile)
1 | C[C@H](NC(=O)c1cc(C(F)(F)F)cc(C(F)(F)F)c1)c1nc(C2CC2)nn1-c1ccc(C#N)cn1 [I-4] | 100% | 100% | 100% | 90% | 100% | 100% | 80 to 100% | 100% | 100% |  |  |  |  |  |  |  |  | 
2 | C[C@H](NC(=O)c1cc(Cl)cc(C(F)(F)F)c1)c1nc(C2CC2)nn1-c1ccc(C#N)cn1 [I-6, 3-chloro-N-{(1S)-1-[1-(5-cyanopyridin-2-yl)-3-cyclopropyl-1H-1,2,4-triazol-5-yl]ethyl}-5-(trifluoromethyl)benzamide] | 100% | 100% | 100% | 100% | 100% | 100% | 80 to 100% | 100% | 100% |  |  |  |  |  |  |  |  | 
3 | COc1nc([C@H](C)NC(=O)c2cc(Cl)cc(Cl)c2)n(-c2ccc(C#N)cn2)n1 [I-15] | 100% | 100% | 100% |  | 100% | 100% |  | 100% | 100% | 100% | 80% | 100% | 80% | 80 to 100% |  |  |  | 
4 | C[C@H](NC(=O)c1cc(Cl)cc(C(F)(F)F)c1)c1nc(C(C)(C)C)nn1-c1ccc(C#N)cn1 [I-38] | 100% | 83% |  |  | 100% | 100% | 80 to 100% | 100% |  |  | 80% |  |  |  | 100% | 100% |  | 
5 | C[C@H](NC(=O)c1cc(Cl)cc(C(F)F)c1)c1nc(C2CC2)nn1-c1ccc(C#N)cn1 [I-42] | 100% | 100% |  |  | 100% |  | 80 to 100% | 100% |  |  |  | 100% |  | 80 to 100% |  | 100% | 80 to 100% | 
6 | C[C@H](NC(=O)c1cc(Cl)cc(SC(F)F)c1)c1nc(C2CC2)nn1-c1ccc(C#N)cn1 [I-46] | 100% | 100% |  |  | 100% |  | 80 to 100% | 100% |  |  |  | 100% |  |  |  | 100% |  | 
7 | C[C@H](NC(=O)c1cc(OC(F)F)cc(OC(F)F)c1)c1nc(C2CC2)nn1-c1ccc(C#N)cn1 [I-47] | 100% | 100% |  |  | 100% |  | 80 to 100% | 80% |  |  | 80% | 90% |  | 80 to 100% | 100% | 100% |  | 80 to 100%
8 | Cc1nc([C@H](C)NC(=O)c2cc(Cl)cc(C(F)(F)C(F)(F)F)c2)n(-c2ccc(C#N)cn2)n1 [II-75] | 100% | 100% |  |  | 100% | 100% |  | 100% |  | 100% | 100% | 100% | 90% |  | 100% |  |  | 
9 | C[C@H](NC(=O)c1cc(Br)cc(OC(F)(F)F)c1)c1ncnn1-c1cc(C#N)ccn1 [II-107] | 100% | 100% |  |  | 100% |  |  | 100% |  | 100% | 100% | 100% | 100% |  | 100% |  |  | 
